Some test systems named below: CAKI-1 renal; HCT-116 colon; LOX IMVI melanoma; NCI-H226 lung; NCI-H460 lung; OVCAR-4 ovarian; SK-MEL-2 melanoma; SNB-19 CNS; SW-620 colon; UACC-257 melanoma.
Assay in all cases: NCI tumour cell line growth inhibition, 48 h

The structures appear in SMILES notation. “And” between values parts separate entries of the source, which are not always exact repeats. Equal values may be shown once.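 Protocol summary: plate cells (96-well), add compound at 5 concentrations, incubate 48 h, interpolate endpoints linearly. GI50: concentration for 50% inhibition of growth. TGI: concentration producing complete growth inhibition.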

`N#CC1C(=O)NC(=O)C1=O` (stereo not given): the TGI in the assay with CAKI-1 renal, with HCT-116 colon, with LOX IMVI melanoma, in the assay on NCI-H226 lung, in the assay with NCI-H460 lung and in the assay with OVCAR-4 ovarian was > 100 µM each time. For the same compound, the TGI with SK-MEL-2 melanoma, in the assay on SNB-19 CNS, in the assay with SW-620 colon and with UACC-257 melanoma was > 100 µM each time.
On to `Cc1cc2c(cc1Cl)N1C(=O)NS(=O)(=O)N=C1NS2(=O)=O`, for which the GI50 in the assay on CAKI-1 renal, in the assay on HCT-116 colon, in the assay on LOX IMVI melanoma, with NCI-H226 lung, in the assay with NCI-H460 lung and in the assay with OVCAR-4 ovarian was > 100 µM throughout. Moreover, the GI50 in the assay with SK-MEL-2 melanoma, in the assay on SNB-19 CNS, with SW-620 colon and with UACC-257 melanoma was > 100 µM throughout. Besides, the TGI in the assay on CAKI-1 renal, with HCT-116 colon, with LOX IMVI melanoma, in the assay on NCI-H226 lung, with NCI-H460 lung and in the assay on OVCAR-4 ovarian was > 100 µM throughout. Also, the TGI with SK-MEL-2 melanoma, with SNB-19 CNS, with SW-620 colon and with UACC-257 melanoma was > 100 µM each time.
`C=C1C(=O)C2(C)OC2(C)C1C(=O)O` (stereo not given): the TGI with CAKI-1 renal, with HCT-116 colon, in the assay with LOX IMVI melanoma, in the assay on NCI-H226 lung, in the assay on NCI-H460 lung and in the assay with OVCAR-4 ovarian was > 100 µM in each case. The TGI in the assay with SK-MEL-2 melanoma, with SNB-19 CNS, in the assay on SW-620 colon and in the assay with UACC-257 melanoma was > 100 µM in each case.
Take `COc1cc(Cn2c(SCC(=O)Nc3ccc(Cl)cc3)nc3ccccc3c2=O)cc(OC)c1OC`: the GI50 was 11.3 µM in the assay on CAKI-1 renal; 4.04 µM in the assay on HCT-116 colon; 13.5 µM with LOX IMVI melanoma; 4 µM in the assay with NCI-H226 lung; 10.4 µM in the assay on NCI-H460 lung; 3.01 µM in the assay with OVCAR-4 ovarian. Further, the GI50 in the assay with SK-MEL-2 melanoma was 15.2 µM; with SNB-19 CNS it was 6.8 µM; in the assay with SW-620 colon, 31.8 µM; with UACC-257 melanoma, 6.04 µM. The TGI with CAKI-1 renal was 58.1 µM; in the assay with HCT-116 colon it was 14.9 µM; in the assay with LOX IMVI melanoma it was > 100 µM; in the assay on NCI-H226 lung it was 26.2 µM; in the assay with NCI-H460 lung, 59.1 µM; in the assay on OVCAR-4 ovarian it was 13.9 µM. The TGI in the assay on SK-MEL-2 melanoma was 32.9 µM; in the assay with SNB-19 CNS it was 26 µM; in the assay on SW-620 colon, > 100 µM; in the assay with UACC-257 melanoma, 28 µM.
Consider `O=C1/C(=C/c2ccccc2[N+](=O)[O-])COc2ccc(O)c(O)c21`, for which the GI50 was 0.607 µM with CAKI-1 renal; 0.297 µM in the assay on HCT-116 colon; 0.307 µM in the assay with LOX IMVI melanoma; 3.97 µM in the assay on NCI-H226 lung; 1.38 µM in the assay with NCI-H460 lung; 0.857 µM in the assay with OVCAR-4 ovarian. For the same compound, the GI50 was 2.18 µM in the assay on SK-MEL-2 melanoma, 2.45 µM with SNB-19 CNS, 0.353 µM with SW-620 colon and 1.42 µM in the assay with UACC-257 melanoma. In addition, the TGI in the assay on CAKI-1 renal is 1.99 µM; in the assay on HCT-116 colon it was 1.1 µM; in the assay with LOX IMVI melanoma, 1.3 µM; in the assay on NCI-H226 lung it was 25.2 µM; with NCI-H460 lung it was 4.94 µM; in the assay on OVCAR-4 ovarian, 2.29 µM. Moreover, the TGI was 5.99 µM in the assay with SK-MEL-2 melanoma, 9.53 µM with SNB-19 CNS, 1.44 µM in the assay on SW-620 colon and 4.06 µM in the assay on UACC-257 melanoma.
Take `O=C(O)COc1ccc(C(=O)/C(SS/C(C(=O)c2ccc(OCC(=O)O)c(Cl)c2Cl)=C2\C=C(c3ccccc3Cl)SS2)=C2/C=C(c3ccccc3Cl)SS2)c(Cl)c1Cl`: the TGI was > 94.7 µM in the assay on CAKI-1 renal; > 58.7 µM in the assay on HCT-116 colon; 28.5 µM in the assay with LOX IMVI melanoma; 47.3 µM in the assay on NCI-H226 lung; 52 µM in the assay with NCI-H460 lung; 57.1 µM with OVCAR-4 ovarian. In addition, the TGI is 50 µM with SK-MEL-2 melanoma, > 100 µM in the assay with SNB-19 CNS, > 56.5 µM in the assay on SW-620 colon and > 83.1 µM in the assay with UACC-257 melanoma.
Take `CCCCCCSc1nc(COC(=O)NC)c(COC(=O)NC)n1C`: the TGI in the assay on CAKI-1 renal, with HCT-116 colon, with LOX IMVI melanoma, in the assay with NCI-H226 lung, in the assay on NCI-H460 lung and with OVCAR-4 ovarian was > 100 µM in each case. The TGI with SK-MEL-2 melanoma, with SNB-19 CNS, in the assay on SW-620 colon and in the assay with UACC-257 melanoma was > 100 µM in each case.
In the case of `CCc1ccc([O-])c(C=NCCCN(C)CCCN=Cc2cc(C)ccc2[O-])c1.[Co+3].[N-]=[N+]=[N-]`, the GI50 in the assay with CAKI-1 renal was 50 µg/mL and 66.9 µg/mL; with HCT-116 colon it was 50 µg/mL and 56.2 µg/mL; in the assay on LOX IMVI melanoma, 41.3 µg/mL; with NCI-H226 lung, 50 µg/mL and 32.5 µg/mL; in the assay on NCI-H460 lung, 50 µg/mL and > 150 µg/mL; in the assay on OVCAR-4 ovarian, 50 µg/mL and 90.8 µg/mL. The GI50 with SK-MEL-2 melanoma is 50 µg/mL and 44.7 µg/mL; in the assay with SNB-19 CNS it was 40.6 µg/mL and 61.6 µg/mL; in the assay with SW-620 colon, 50 µg/mL and > 150 µg/mL; in the assay with UACC-257 melanoma it was 50 µg/mL and > 150 µg/mL. For the same compound, the TGI with CAKI-1 renal is 50 µg/mL and > 150 µg/mL; in the assay with HCT-116 colon, 50 µg/mL and > 150 µg/mL; with LOX IMVI melanoma, > 150 µg/mL; with NCI-H226 lung, 50 µg/mL and 88.6 µg/mL; in the assay on NCI-H460 lung it was 50 µg/mL and > 150 µg/mL; with OVCAR-4 ovarian, 50 µg/mL and > 150 µg/mL. The TGI is 50 µg/mL and 135 µg/mL in the assay with SK-MEL-2 melanoma; 50 µg/mL and 123 µg/mL with SNB-19 CNS; 50 µg/mL and > 150 µg/mL with SW-620 colon; 50 µg/mL and > 150 µg/mL in the assay with UACC-257 melanoma.
`Fc1ccc(C2C3CCOc4c(ccc5ccccc45)C3=NN2c2ccccc2)cc1` (stereo not given): the GI50 in the assay with CAKI-1 renal was 64.2 µM; in the assay on HCT-116 colon it was > 86.2 µM; in the assay with LOX IMVI melanoma, 88.4 µM; with NCI-H226 lung it was 34.2 µM; with NCI-H460 lung, 37.1 µM; in the assay with OVCAR-4 ovarian, > 100 µM. Also, the GI50 in the assay with SK-MEL-2 melanoma is > 100 µM; in the assay with SNB-19 CNS, 99.2 µM; with SW-620 colon, > 100 µM; with UACC-257 melanoma, 43.9 µM. In addition, the TGI in the assay on CAKI-1 renal was > 100 µM; in the assay on HCT-116 colon, > 100 µM; with LOX IMVI melanoma, > 100 µM; in the assay on NCI-H226 lung, 97 µM; in the assay on NCI-H460 lung, > 100 µM; in the assay on OVCAR-4 ovarian it was > 100 µM. Also, the TGI with SK-MEL-2 melanoma, in the assay with SNB-19 CNS, in the assay with SW-620 colon and with UACC-257 melanoma was > 100 µM each time.
